Results: paper PMC2391111 (British Journal of Cancer, 2008)
“Also recorded” adds a separate entry of the source. Like-named read-outs stand apart in the source and are kept apart here. One block for each compound: values may come before it.

Legend:
[1] = Plasma pharmacokinetics of bortezomib and docetaxel given in combination; format: in vivo, patients; conditions: for AUC(0-t) / AUC(0-inf) / clearance / half-life / Vd / Cmax: human, plasma, intravenous; for AUC(0-t): read-out: AUC0–t, mean (%CV); for AUC(0-inf): read-out: AUC0–∞∞, mean (%CV); for clearance: read-out: CL, mean (%CV) (converted); for Cmax: read-out: Cmax, mean (%CV)
Source text: In patients participating in pharmacokinetic analysis, blood samples were taken on day 1, cycle 1, to determine the plasma concentration time profile of docetaxel and bortezomib. Samples were collected immediately before docetaxel infusion and bortezomib injection and at prespecified intervals on day 1. Samples were also taken for bortezomib pharmacokinetic analysis on day 11 of cycle 1. Whole-blood samples were taken for pharmacodynamic analysis using 20S proteasome inhibition assay ([Lightcap et al, 2000]) immediately before and 1 h after bortezomib dosing on days 1 and 11 of cycles 1 and 2, and on days 2 and 12 of cycle 1, in a subset of patients participating in pharmacokinetic analysis.

20S proteasome = 20S proteasome (Homo sapiens, UniProt P28074); assay: 20S proteasome inhibition assay in whole blood; format: in vivo, patients
20S proteasome, sequence (P28074 60-263): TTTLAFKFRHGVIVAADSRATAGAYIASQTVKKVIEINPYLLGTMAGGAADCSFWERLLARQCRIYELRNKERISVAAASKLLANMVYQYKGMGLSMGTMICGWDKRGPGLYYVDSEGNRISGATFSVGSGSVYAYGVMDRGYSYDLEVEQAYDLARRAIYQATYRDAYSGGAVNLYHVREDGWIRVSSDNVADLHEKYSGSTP

metastatic breast cancer = conditions: single agent, anthracycline-pretreated metastatic breast cancer ref Jones et al, 2005; cited from earlier work
[2] = system: alpha-1 acid glycoprotein (AAG), albumin, and lipoproteins; set-up: method as in Aventis Pharmaceuticals Inc, 2005; conditions: in vitro ref Aventis Pharmaceuticals Inc, 2005; cited from earlier work
[3] = system: HER2-positive breast cancer cell lines; set-up: method as in Cardoso et al, 2006; conditions: HER2-positive cells, four cell lines ref Cardoso et al, 2006; cited from earlier work
[4] = 75 mg, docetaxel 75 mg m^−2 (n=7), day 1, with bortezomib
[5] = 100 mg, docetaxel 100 mg m^−2 (n=6), day 1, with bortezomib
[6] = 1 mg, bortezomib 1.0 mg m^−2 (n=5), day 1, with docetaxel
[7] = 1 mg, bortezomib 1.0 mg m^−2 (n=5), day 11
[8] = 1.3 mg, bortezomib 1.3 mg m^−2 (n=3), day 1, with docetaxel
[9] = 1.3 mg, bortezomib 1.3 mg m^−2 (n=3), day 11
[10] = 1.5 mg, bortezomib 1.5 mg m^−2 (n=6), day 11
[11] = 1.5 mg, bortezomib 1.5 mg m^−2 (n=8), day 1, with docetaxel

- AUC(0-t) [1, 4]: 1700 ng·h/mL
- AUC(0-inf) [1, 4]: 1850 ng·h/mL
- clearance [1, 4]: 1420 mL/min
- half-life ([1]; 75 mg, docetaxel 75 mg m^−2 (n=7), day 1, with bortezomib, read-out: T½,z, mean (%CV) (converted)): 10.4 h
- Vd ([1]; 75 mg, docetaxel 75 mg m^−2 (n=7), day 1, with bortezomib, read-out: Vss, mean (%CV)): 180 L
- Vd ([1]; 75 mg, docetaxel 75 mg m^−2 (n=7), day 1, with bortezomib, read-out: Vz, mean (%CV)): 920 L
- half-life ([1]; 75 mg, docetaxel 75 mg m^−2, day 1, patients with measurable plasma concentrations at 24 h post-dose (n=3), read-out: T½,z 24-h, mean (converted)): 17.6 h
- AUC(0-t) [1, 5]: 2550 ng·h/mL
- AUC(0-inf) [1, 5]: 2730 ng·h/mL
- clearance [1, 5]: 1160 mL/min
- half-life ([1]; 100 mg, docetaxel 100 mg m^−2 (n=6), day 1, with bortezomib, read-out: T½,z, mean (%CV) (converted)): 15 h
- Vd ([1]; 100 mg, docetaxel 100 mg m^−2 (n=6), day 1, with bortezomib, read-out: Vss, mean (%CV)): 372 L
- Vd ([1]; 100 mg, docetaxel 100 mg m^−2 (n=6), day 1, with bortezomib, read-out: Vz, mean (%CV)): 1510 L
- half-life ([1]; 100 mg, docetaxel 100 mg m^−2, day 1, patients with measurable plasma concentrations at 24 h post-dose (n=5), read-out: T½,z 24-h, mean (converted)): 17.4 h
- Cmax ([1]; docetaxel 75 mg m^−2 (n=7), day 1, with bortezomib): 1620 ng/mL
- Cmax ([1]; docetaxel 100 mg m^−2 (n=6), day 1, with bortezomib): 2520 ng/mL
Structure (SMILES): CC(=O)O[C@@]12CO[C@@H]1C[C@H](O)[C@@]1(C)C(=O)[C@H](O)C3=C(C)[C@@H](OC(=O)[C@H](O)[C@@H](NC(=O)OC(C)(C)C)c4ccccc4)C[C@@](O)([C@@H](OC(=O)c4ccccc4)[C@H]21)C3(C)C [Docetaxel]
- Effect of coadministered docetaxel on 20S proteasome inhibition by bortezomib (20S proteasome; whole blood): appeared not to affect; also recorded: did not appear to affect
- Median TTP (metastatic breast cancer): 5.7 months
- Response rate (metastatic breast cancer): 32%
- Plasma protein binding [2]: extensively plasma protein-bound

Structure (SMILES): CC(=O)O[C@H]1C(=O)[C@@]2(C)[C@H]([C@H](OC(=O)c3ccccc3)[C@]3(O)C[C@H](OC(=O)[C@H](O)[C@@H](NC(=O)c4ccccc4)c4ccccc4)C(C)=C1C3(C)C)[C@]1(OC(C)=O)CO[C@@H]1C[C@@H]2O [paclitaxel]
- Median TTP (metastatic breast cancer): 3.6 months
- Response rate (metastatic breast cancer): 25%

- C0, mean (%CV) ([1]; bortezomib 1.0 mg m^−2 (n=5), day 1, with docetaxel): 208 (34) ng ml^−1
- C0, mean (%CV) ([1]; bortezomib 1.0 mg m^−2 (n=5), day 11): 552 (148) ng ml^−1
- C0, mean (%CV) ([1]; bortezomib 1.3 mg m^−2 (n=3), day 1, with docetaxel): 137 (54) ng ml^−1
- C0, mean (%CV) ([1]; bortezomib 1.3 mg m^−2 (n=3), day 11): 237 (59) ng ml^−1
- C0, mean (%CV) ([1]; bortezomib 1.5 mg m^−2 (n=6), day 11): 153 (41) ng ml^−1
- C0, mean (%CV) ([1]; bortezomib 1.5 mg m^−2 (n=8), day 1, with docetaxel): 268 (71) ng ml^−1
- AUC(0-t) [1, 6]: 43 ng·h/mL
- AUC(0-inf) [1, 6]: 54.6 ng·h/mL
- clearance [1, 6]: 562 mL/min
- half-life ([1]; 1 mg, bortezomib 1.0 mg m^−2 (n=5), day 1, with docetaxel, read-out: T½,z, mean (%CV) (converted)): 9.15 h
- Vd ([1]; 1 mg, bortezomib 1.0 mg m^−2 (n=5), day 1, with docetaxel, read-out: Vss, mean (%CV)): 222 L
- Vd ([1]; 1 mg, bortezomib 1.0 mg m^−2 (n=5), day 1, with docetaxel, read-out: Vz, mean (%CV)): 408 L
- AUC(0-t) [1, 7]: 112 ng·h/mL
- AUC(0-inf) [1, 7]: 133 ng·h/mL
- clearance [1, 7]: 225 mL/min
- half-life ([1]; 1 mg, bortezomib 1.0 mg m^−2 (n=5), day 11, read-out: T½,z, mean (%CV) (converted)): 12.2 h
- Vd ([1]; 1 mg, bortezomib 1.0 mg m^−2 (n=5), day 11, read-out: Vss, mean (%CV)): 151 L
- Vd ([1]; 1 mg, bortezomib 1.0 mg m^−2 (n=5), day 11, read-out: Vz, mean (%CV)): 237 L
- half-life ([1]; 1 mg, bortezomib 1.0 mg m^−2, day 1, patients with measurable plasma concentrations at 24 h post-dose (n=2), read-out: T½,z 24-h, mean (converted)): 15.1 h
- half-life ([1]; 1 mg, bortezomib 1.0 mg m^−2, day 11, patients with measurable plasma concentrations at 24 h post-dose (n=4), read-out: T½,z 24-h, mean (converted)): 14.3 h
- AUC(0-t) [1, 8]: 35.5 ng·h/mL
- AUC(0-inf) [1, 8]: 49 ng·h/mL
- clearance [1, 8]: 850 mL/min
- half-life ([1]; 1.3 mg, bortezomib 1.3 mg m^−2 (n=3), day 1, with docetaxel, read-out: T½,z, mean (%CV) (converted)): 14.2 h
- Vd ([1]; 1.3 mg, bortezomib 1.3 mg m^−2 (n=3), day 1, with docetaxel, read-out: Vss, mean (%CV)): 596 L
- Vd ([1]; 1.3 mg, bortezomib 1.3 mg m^−2 (n=3), day 1, with docetaxel, read-out: Vz, mean (%CV)): 924 L
- AUC(0-t) [1, 9]: 90.5 ng·h/mL
- AUC(0-inf) [1, 9]: 111 ng·h/mL
- clearance [1, 9]: 350 mL/min
- half-life ([1]; 1.3 mg, bortezomib 1.3 mg m^−2 (n=3), day 11, read-out: T½,z, mean (%CV) (converted)): 12.2 h
- Vd ([1]; 1.3 mg, bortezomib 1.3 mg m^−2 (n=3), day 11, read-out: Vss, mean (%CV)): 237 L
- Vd ([1]; 1.3 mg, bortezomib 1.3 mg m^−2 (n=3), day 11, read-out: Vz, mean (%CV)): 374 L
- half-life ([1]; 1.3 mg, bortezomib 1.3 mg m^−2, day 1, patients with measurable plasma concentrations at 24 h post-dose (n=2), read-out: T½,z 24-h, mean (converted)): 18.1 h
- half-life ([1]; 1.3 mg, bortezomib 1.3 mg m^−2, day 11, patients with measurable plasma concentrations at 24 h post-dose (n=2), read-out: T½,z 24-h, mean (converted)): 17.1 h
- AUC(0-t) [1, 10]: 103 ng·h/mL
- AUC(0-inf) [1, 10]: 161 ng·h/mL
- clearance [1, 10]: 267 mL/min
- half-life ([1]; 1.5 mg, bortezomib 1.5 mg m^−2 (n=6), day 11, read-out: T½,z, mean (%CV) (converted)): 23.6 h
- Vd ([1]; 1.5 mg, bortezomib 1.5 mg m^−2 (n=6), day 11, read-out: Vss, mean (%CV)): 391 L
- Vd ([1]; 1.5 mg, bortezomib 1.5 mg m^−2 (n=6), day 11, read-out: Vz, mean (%CV)): 538 L
- AUC(0-t) [1, 11]: 69 ng·h/mL
- AUC(0-inf) [1, 11]: 85.3 ng·h/mL
- clearance [1, 11]: 615 mL/min
- half-life ([1]; 1.5 mg, bortezomib 1.5 mg m^−2 (n=8), day 1, with docetaxel, read-out: T½,z, mean (%CV) (converted)): 6.9 h
- Vd ([1]; 1.5 mg, bortezomib 1.5 mg m^−2 (n=8), day 1, with docetaxel, read-out: Vss, mean (%CV)): 209 L
- Vd ([1]; 1.5 mg, bortezomib 1.5 mg m^−2 (n=8), day 1, with docetaxel, read-out: Vz, mean (%CV)): 282 L
- half-life ([1]; 1.5 mg, bortezomib 1.5 mg m^−2, day 1, patients with measurable plasma concentrations at 24 h post-dose (n=2), read-out: T½,z 24-h, mean (converted)): 17.8 h
- half-life ([1]; 1.5 mg, bortezomib 1.5 mg m^−2, day 11, patients with measurable plasma concentrations at 24 h post-dose, read-out: T½,z 24-h, mean (converted)): 23.6 h
- half-life ([1]; following the first dose, patients with measurable plasma concentrations at 24 h post-dose, read-out: Terminal half-lives, mean values across dose levels): 15 to 18 h
- Percent 20S proteasome inhibition, cycle 2 versus cycle 1 (20S proteasome; all dose groups): greater in cycle 2 than cycle 1
- Inhibition of 20S proteasome activity (20S proteasome; whole blood, 1 h post-dose): 46.14–88.80%
- Inhibition of 20S proteasome activity (20S proteasome; whole blood, immediately prior to the dose on day 11): 10.93–51.18%
Structure (SMILES): CC(C)C[C@H](NC(=O)[C@H](Cc1ccccc1)NC(=O)c1cnccn1)B(O)O [Bortezomib]
- Effect on the effect of trastuzumab [3]: acts synergistically
